# Test results reported in patent US20250248970A1, “NOVEL SUBSTITUTED FLUORINATED N-PROPYL-PYRROLIDINE COMPOUNDS, PROCESSES FOR THEIR PREPARATION AND THERAPEUTIC USES THEREOF” (SANOFI, priority 2022, published 2025).
# Molecular target: T1, ERα (Homo sapiens, UniProt P03372)
# T1 construct: host or cells: MCF7
# T1 sequence (P03372 1-595): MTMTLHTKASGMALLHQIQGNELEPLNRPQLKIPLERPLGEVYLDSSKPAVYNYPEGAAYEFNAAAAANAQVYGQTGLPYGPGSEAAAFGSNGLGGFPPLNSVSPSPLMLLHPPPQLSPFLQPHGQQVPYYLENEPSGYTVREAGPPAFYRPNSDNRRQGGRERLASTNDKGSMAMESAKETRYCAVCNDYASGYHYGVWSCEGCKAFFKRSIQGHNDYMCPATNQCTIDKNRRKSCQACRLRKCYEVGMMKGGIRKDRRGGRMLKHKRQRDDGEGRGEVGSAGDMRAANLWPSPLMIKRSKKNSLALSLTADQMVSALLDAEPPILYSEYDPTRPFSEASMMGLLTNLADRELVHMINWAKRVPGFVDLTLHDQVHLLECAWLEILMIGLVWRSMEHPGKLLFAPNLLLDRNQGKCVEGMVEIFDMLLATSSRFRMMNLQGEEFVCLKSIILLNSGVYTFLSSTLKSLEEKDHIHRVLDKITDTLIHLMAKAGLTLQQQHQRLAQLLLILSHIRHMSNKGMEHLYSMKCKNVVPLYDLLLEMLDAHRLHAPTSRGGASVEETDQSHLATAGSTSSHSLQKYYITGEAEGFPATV
# Test: Estrogen receptor degradation activity (breast cancer cell ERα in cell western assay)
# Format: cell-based
# Conditions: MCF7 cells, 0.3 μM, 4 hours, % of ERα levels decrease relative to fulvestrant
# Procedure: Said test involves measuring the in vitro degradation activity of the compounds of the Table 1a.
# The measurements of the degradation activities were made using a breast cancer cell ERα in cell western assay as described hereunder.
# MCF7 cells (ATCC) were seeded in 384 wells microplate (collagen coated) at a concentration of 10000 cells/30 μL per well in red phenol free MEM alpha medium (invitrogen) containing 5% charcoal dextran striped FBS. The following day, 9 points serial 1:5 dilution of each compound was added to the cells in 2.5p L at final concentrations ranging from 0.3-0.0000018 μM (in table 2), or 0.1 μM for fulvestrant (using as positive control). At 4 hours post compound addition the cells were fixed by adding 25 μL of formalin (final concentration 5% formalin containing 0.1% triton) for 10 minutes at room temperature and then washed twice with PBS. Then, 50 μL of LI-COR blocking buffer containing 0.1% Triton was added to plate for 30 minutes at room temperature. LI-COR blocking buffer was removed and cells were incubated overnight at cold room with 50 μL anti-ER rabbit monoclonal antibody (Thermo scientific MA1-39540) diluted at 1:1000 in LI-COR blocking buffer containing 0.1% tween-20. Wells which were treated with blocking buffer but no antibody were used as background control. Wells were washed twice with PBS (0.1% tween-20) and incubated at 37° C. for 60 minutes in LI-COR (0.1% tween-20) containing goat anti-rabbit antibody Alexa 488 (1:1000) and Syto-64 a DNA dye (2 μM final concentration). Cells were then washed 3 times in PBS and scanned in ACUMEN explorer (TTP-Labtech). Integrated intensities in the green fluorescence and red fluorescence were measured to determine the levels of ERα and DNA respectively.
# The degradation activity with respect to estrogen receptors in this test is given by the concentration which degrades 50% of the estrogen receptor (or IC50) in nM.
# The % of ERα levels decrease were determined as follows: % inhibition=100*(1−(sample−fulvestrant: DMSO−fulvestrant)).
row,Compound,% Degradation At 0.3 μM [%]
1,"COc1ccc(C2=C(c3ccc(CC4CCN(CCCF)C4)cc3)c3ccc(C(=O)O)cc3CCC2)cn1 (single isomer, unassigned; isomer 1) [Compound 14, 9-(4-((1-(3-fluoropropyl)pyrrolidin-3-yl)methyl)phenyl)-8-(6-methoxypyridin-3-yl)-6,7-dihydro-5H-benzo[7]annulene-3-carboxylic acid, Isomer 1]",88
2,"O=C(O)C(F)(F)F.O=C(O)c1ccc2c(c1)CCCC(c1ccc(Cl)cc1Cl)=C2c1ccc(CC2(F)CCN(CCCF)C2)cc1 (single isomer, unassigned; isomer 2) [Compound 22, 8-(2,4-dichlorophenyl)-9-(4-((3-fluoro-1-(3-fluoropropyl)pyrrolidin-3-yl)methyl)phenyl)-6,7-dihydro-5H-benzo[7]annulene-3-carboxylic acid, 2,2,2-trifluoroacetic acid, Isomer 2]",48
3,"CC1CCc2cc(C(=O)O)ccc2C(c2ccc(CC3CCN(CCCF)C3)cc2)=C1c1ccc(C(F)(F)F)cc1 (single isomer, unassigned; isomer 1) [Compound 41, 9-(4-((1-(3-fluoropropyl)pyrrolidin-3-yl)methyl)phenyl)-7-methyl-8-(4-(trifluoromethyl)phenyl)-6,7-dihydro-5H-benzo[7]annulene-3-carboxylic acid, Isomer 1]",100
4,"O=C(O)c1ccc2c(c1)CCCC(c1ccc(Cl)cc1Cl)=C2c1ccc(CC2CCN(CCC(F)F)C2)cc1 (single isomer, unassigned; isomer 1) [Compound 9, 8-(2,4-dichlorophenyl)-9-(4-((1-(3,3-difluoropropyl)pyrrolidin-3-yl)methyl)phenyl)-6,7-dihydro-5H-benzo[7]annulene-3-carboxylic acid, Isomer 1]",80
5,"Cc1cc(F)cc(C)c1C1=C(c2ccc(CC3CCN(CCCF)C3)cc2)c2ccc(C(=O)O)cc2CCC1.Cl (single isomer, unassigned; isomer 1) [Compound 35, 8-(4-fluoro-2,6-dimethylphenyl)-9-(4-((1-(3-fluoropropyl)pyrrolidin-3-yl)methyl)phenyl)-6,7-dihydro-5H-benzo[7]annulene-3-carboxylic acid hydrochloride, Isomer 1]",84
6,"O=C(O)c1ccc2c(c1)CCCC(c1ccc(Cl)cc1Cl)=C2c1ccc(C[C@@H]2CCN(CCCF)C2)cc1 [Compound 24, 8-(2,4-dichlorophenyl)-9-(4-((1-(3-fluoropropyl)pyrrolidin-3-yl)methyl)phenyl)-6,7-dihydro-5H-benzo[7]annulene-3-carboxylic acid, (R) Isomer]",46
7,"Cc1cccc(C2=C(c3ccc(CC4CCN(CCC(F)F)C4)cc3)c3ccc(C(=O)O)cc3CCC2)c1C(F)(F)F.Cl (single isomer, unassigned; isomer 1) [Compound 34, 9-(4-((1-(3,3-difluoropropyl)pyrrolidin-3-yl)methyl)phenyl)-8-(3-methyl-2-(trifluoromethyl)phenyl)-6,7-dihydro-5H-benzo[7]annulene-3-carboxylic acid hydrochloride, Isomer 1]",85
8,"Oc1ccc2c(c1)SCCC(c1ccc(Cl)cc1Cl)=C2c1ccc(CC2CCN(CCCF)C2)cc1 (single isomer, unassigned; isomer 1) [Compound 43, 4-(2,4-dichlorophenyl)-5-(4-((1-(3-fluoropropyl)pyrrolidin-3-yl)methyl)phenyl)-2,3-dihydrobenzo[b]thiepin-8-ol, Isomer 1]",80
9,"Cl.O=C(O)c1ccc2c(c1)OCCC(c1ccc(Cl)cc1Cl)=C2c1ccc(CC2CCN(CCCF)C2)cc1 (single isomer, unassigned; isomer 2) [Compound 8, 4-(2,4-dichlorophenyl)-5-(4-((1-(3-fluoropropyl)pyrrolidin-3-yl)methyl)phenyl)-2,3-dihydrobenzo[b]oxepine-8-carboxylic acid hydrochloride, Isomer 2]",63

# Results, then the compound that gave them:
row,% Degradation At 0.3 μM [%],Compound
1,76,"Cl.Oc1ccc2c(c1)CCCC(c1ccc(Cl)cc1Cl)=C2c1ccc(CC2CCN(CCCF)C2)cc1 (single isomer, unassigned; isomer 1) [Compound 29, 8-(2,4-dichlorophenyl)-9-(4-((1-(3-fluoropropyl)pyrrolidin-3-yl)methyl)phenyl)-6,7-dihydro-5H-benzo[7]annulene-3-ol hydrochloride, Isomer 1]"
2,70,"Oc1ccc2c(c1)SCCC(c1ccccc1Cl)=C2c1ccc(CC2CCN(CCCF)C2)cc1 (single isomer, unassigned; isomer 1) [Compound 44, 4-(2-chlorophenyl)-5-(4-((1-(3-fluoropropyl)pyrrolidin-3-yl)methyl)phenyl)-2,3-dihydrobenzo[b]thiepin-8-ol, Isomer 1]"
3,73,"Cl.Oc1ccc2c(c1)CCCC(c1ccc(Cl)cc1Cl)=C2c1ccc(CC2CCN(CCC(F)F)C2)cc1 (single isomer, unassigned; isomer 1) [Compound 31, 8-(2,4-dichlorophenyl)-9-(4-((1-(3,3-difluoropropyl)pyrrolidin-3-yl)methyl)phenyl)-6,7-dihydro-5H-benzo[7]annulen-3-ol hydrochloride, Isomer 1]"
4,84,"Cc1cc(F)ccc1C1=C(c2ccc(CC3CCN(CCCF)C3)cc2)c2ccc(C(=O)O)cc2CCC1 (single isomer, unassigned; isomer 1) [Compound 17, 8-(4-fluoro-2-methylphenyl)-9-(4-((1-(3-fluoropropyl)pyrrolidin-3-yl)methyl)phenyl)-6,7-dihydro-5H-benzo[7]annulene-3-carboxylic acid, Isomer 1]"
5,84,"O=C(O)c1ccc2c(c1)CCCC(c1ccc(F)cc1F)=C2c1ccc(CC2CCN(CCC(F)F)C2)cc1 (single isomer, unassigned; isomer 1) [Compound 10, 8-(2,4-difluorophenyl)-9-(4-((1-(3,3-difluoropropyl)pyrrolidin-3-yl)methyl)phenyl)-6,7-dihydro-5H-benzo[7]annulene-3-carboxylic acid, Isomer 1]"
6,80,"Cl.O=C(O)c1ccc2c(c1)OCCC(c1ccc(Cl)cc1Cl)=C2c1ccc(CC2CCN(CCCF)C2)cc1 (single isomer, unassigned; isomer 1) [Compound 7, 4-(2,4-dichlorophenyl)-5-(4-((1-(3-fluoropropyl)pyrrolidin-3-yl)methyl)phenyl)-2,3-dihydrobenzo[b]oxepine-8-carboxylic acid hydrochloride, Isomer 1]"
7,76,"Cc1cc(F)cc(C)c1C1=C(c2ccc(CC3CCN(CCC(F)F)C3)cc2)c2ccc(C(=O)O)cc2CCC1.Cl (single isomer, unassigned; isomer 1) [Compound 32, 9-(4-((1-(3,3-difluoropropyl)pyrrolidin-3-yl)methyl)phenyl)-8-(4-fluoro-2,6-dimethylphenyl)-6,7-dihydro-5H-benzo[7]annulene-3-carboxylic acid hydrochloride, Isomer 1]"
